Measured values taken from article PMC9354042, “Discovery of BRAF/HDAC Dual Inhibitors Suppressing Proliferation of Human Colorectal Cancer Cells” (Frontiers in Chemistry, 2022).

Assays:
HDAC1 = target: T1, HDAC1 (Homo sapiens, UniProt Q13547); test: HDAC1 fluorescent-based enzymatic activity assay; format: biochemical; conditions: Table 1; read-out: Enzymatic IC50 HDAC1
T1 construct: purchased BPS Bioscience
Protocol: (§1) The purified recombinant Human HDACs and their corresponding substrates were purchased from BPS Bioscience (BPS Bioscience Inc., United States). The assays were carried out in a 384-well format using the BPS fluorescent–based HDAC activity assay according to the manufacturer’s protocol. In brief, […] of the HDAC reaction mixture was composed of HDAC assay buffer, […] BSA, serial diluted test compounds, appropriate concentration of HDACs, and […] fluorogenic substrate, the mixture was incubated at 37°C for 60 min, and then stopped by the addition of developer containing trypsin and TSA. After 20 min of incubation, the fluorescence was detected at the excitation wavelength of 360 nm and the emission wavelength of 460 nm using the EnVision Multilabel Reader (PerkinElmer Inc., United States). The analytical software, GraphPad Prism 5.0 (GraphPad Software, Inc., United States) was used to generate IC50 value via non-linear regression analysis.

HCT116 cells = test: Antiproliferation CCK-8 assay, HCT116; format: cell-based; conditions: Homo sapiens, HCT-116; CCK-8, 72 h, HCT116 (wild-type BRAF); means of three independent experiments; read-out: Cellular IC50 HCT116
Protocol: (§2) HCT116 and HT-29 cells were obtained from the Shanghai Cell Bank (Type Culture Collection (TCC), Chinese Academy of Sciences) and cultured in DMEM (10–013-CVR, corning) supplemented with 10% fetal bovine serum (04-001-1A, BI), 1% penicillin/streptomycin (03-031-1B, BI).
(§3) The cells in the logarithmic phase were placed in 96-well plates (∼3000 cells/well) in a complete medium. After incubation overnight, the cells were exposed to the corresponding compounds or vehicle control at the indicated concentration for a further 72 h. Cell proliferation was evaluated using Cell Counting Kit 8 (CCK8, CK04, Dojindo Laboratories, Kumamoto, Japan). OD450 and OD650 were determined using a microplate reader. Absorbance rate (A) for each well was calculated as OD450 −OD650. […] Each IC50 value is expressed as mean ± SD. As is the absorbance rate of the test compound well, Ac is the absorbance rate of the well without either the cell or test compound, and Ab is the absorbance rate of the well with the cell and vehicle control.

HT-29 cells = test: Antiproliferation CCK-8 assay, HT-29; format: cell-based; conditions: Homo sapiens; CCK-8, 72 h, HT-29 (BRAF^V600E); means of three independent experiments; read-out: Cellular IC50 HT-29
Protocol: as §2, §3

HDAC6 = target: T2, HDAC6 (Homo sapiens, UniProt Q9UBN7); test: HDAC6 fluorescent-based enzymatic activity assay; format: biochemical; conditions: Table 1; read-out: Enzymatic IC50 HDAC6
T2 construct: purchased BPS Bioscience
T2 sequence (Q9UBN7 1-1215): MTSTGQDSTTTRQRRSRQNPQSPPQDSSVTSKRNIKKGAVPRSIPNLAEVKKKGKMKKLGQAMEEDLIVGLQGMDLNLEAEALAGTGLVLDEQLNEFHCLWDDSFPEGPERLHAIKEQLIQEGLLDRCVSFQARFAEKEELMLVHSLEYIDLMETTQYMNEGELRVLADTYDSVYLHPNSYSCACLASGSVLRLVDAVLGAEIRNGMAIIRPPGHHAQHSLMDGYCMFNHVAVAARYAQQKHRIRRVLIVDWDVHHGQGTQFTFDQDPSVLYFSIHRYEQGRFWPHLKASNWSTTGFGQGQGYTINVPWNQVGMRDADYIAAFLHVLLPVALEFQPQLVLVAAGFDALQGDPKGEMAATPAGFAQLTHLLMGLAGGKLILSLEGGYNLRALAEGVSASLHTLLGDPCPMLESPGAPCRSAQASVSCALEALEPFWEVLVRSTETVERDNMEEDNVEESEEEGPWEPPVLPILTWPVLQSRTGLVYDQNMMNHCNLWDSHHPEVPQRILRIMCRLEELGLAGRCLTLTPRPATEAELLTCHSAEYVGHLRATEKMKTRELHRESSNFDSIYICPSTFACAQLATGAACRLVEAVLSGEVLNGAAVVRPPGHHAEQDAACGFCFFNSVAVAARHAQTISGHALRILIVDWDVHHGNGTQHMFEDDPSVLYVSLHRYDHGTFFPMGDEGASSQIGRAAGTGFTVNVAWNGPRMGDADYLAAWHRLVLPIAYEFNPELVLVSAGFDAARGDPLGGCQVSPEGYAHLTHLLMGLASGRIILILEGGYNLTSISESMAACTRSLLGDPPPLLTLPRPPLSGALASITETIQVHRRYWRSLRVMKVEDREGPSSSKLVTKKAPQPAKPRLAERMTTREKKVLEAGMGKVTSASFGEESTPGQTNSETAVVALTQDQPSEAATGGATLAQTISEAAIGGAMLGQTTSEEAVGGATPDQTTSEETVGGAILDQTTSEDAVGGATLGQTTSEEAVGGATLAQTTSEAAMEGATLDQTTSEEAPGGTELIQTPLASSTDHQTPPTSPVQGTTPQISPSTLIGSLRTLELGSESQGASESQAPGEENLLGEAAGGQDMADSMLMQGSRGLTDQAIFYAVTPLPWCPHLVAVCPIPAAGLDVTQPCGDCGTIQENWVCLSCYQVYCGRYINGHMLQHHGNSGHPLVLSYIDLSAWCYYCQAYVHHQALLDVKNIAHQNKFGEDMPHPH
Protocol: as §1

BRAF^V600E = target: T3, BRAF^V600E (Homo sapiens, UniProt P15056, V600E); test: BRAF V600E enzymatic activity, FRET-based Z'-Lyte kinase assay; format: biochemical
T3 construct: purchased Invitrogen
T3 sequence (P15056 whole entry V600E): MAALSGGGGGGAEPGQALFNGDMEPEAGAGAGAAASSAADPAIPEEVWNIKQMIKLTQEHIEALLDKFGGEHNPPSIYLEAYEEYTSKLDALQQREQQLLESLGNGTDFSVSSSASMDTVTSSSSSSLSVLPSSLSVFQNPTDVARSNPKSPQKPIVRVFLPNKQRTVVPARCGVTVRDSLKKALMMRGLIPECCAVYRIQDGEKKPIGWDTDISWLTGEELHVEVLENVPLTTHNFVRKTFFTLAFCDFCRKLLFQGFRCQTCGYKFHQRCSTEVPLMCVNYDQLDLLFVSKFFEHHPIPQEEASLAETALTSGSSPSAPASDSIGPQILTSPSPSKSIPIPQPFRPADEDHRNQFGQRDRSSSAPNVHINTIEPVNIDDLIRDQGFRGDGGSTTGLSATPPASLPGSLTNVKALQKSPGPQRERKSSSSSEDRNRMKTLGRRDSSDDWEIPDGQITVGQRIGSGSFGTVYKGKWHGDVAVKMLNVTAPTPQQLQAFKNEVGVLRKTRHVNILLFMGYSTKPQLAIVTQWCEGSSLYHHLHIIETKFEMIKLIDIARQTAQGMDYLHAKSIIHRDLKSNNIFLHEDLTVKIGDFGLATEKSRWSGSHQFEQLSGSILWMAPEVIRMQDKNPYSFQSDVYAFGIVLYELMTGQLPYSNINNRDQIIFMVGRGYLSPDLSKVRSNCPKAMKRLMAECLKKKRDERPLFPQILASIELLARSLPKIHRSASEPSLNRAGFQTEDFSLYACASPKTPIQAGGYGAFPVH
Protocol: The experiments were performed according to the instructions of the manufacturer. […] For each assay, 10 μl kinase reactions were added to 384-well plate, mixed thoroughly, and incubated for 1 hour at room temperature. Then, a 5 μl development solution was added to each well and the plate was incubated for another 1 h at room temperature. Then, a 5 μl stop reagent was loaded to stop the reaction. For the control setting, a 5 μl phospho-peptide solution instead of kinase/peptide mixture was used as 100% phosphorylation control. […] The plate was measured on an EnVision Multilabel Reader (Perkin-Elmer). Curve fitting and data presentations were performed using GraphPad Prism, version 5.0. Every experiment was repeated at least two times.

T1 sequence (Q13547 whole entry): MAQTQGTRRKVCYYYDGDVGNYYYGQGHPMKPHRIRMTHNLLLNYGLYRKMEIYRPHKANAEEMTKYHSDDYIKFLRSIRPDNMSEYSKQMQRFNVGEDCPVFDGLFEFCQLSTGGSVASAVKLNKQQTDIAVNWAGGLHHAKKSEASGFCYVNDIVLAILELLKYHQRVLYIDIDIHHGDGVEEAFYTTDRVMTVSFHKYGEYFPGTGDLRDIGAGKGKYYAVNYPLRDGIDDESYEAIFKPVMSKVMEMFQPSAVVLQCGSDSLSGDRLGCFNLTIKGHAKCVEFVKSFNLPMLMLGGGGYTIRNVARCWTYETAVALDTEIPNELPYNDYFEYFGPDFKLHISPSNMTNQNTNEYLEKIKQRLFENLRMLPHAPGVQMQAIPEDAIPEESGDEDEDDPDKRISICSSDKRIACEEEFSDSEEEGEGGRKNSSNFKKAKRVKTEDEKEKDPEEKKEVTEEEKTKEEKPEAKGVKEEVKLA

IC50 (HDAC1) [µM] | IC50 (HCT116 cells) [µM] | IC50 (HT-29 cells) [µM] | IC50 (HDAC6) [µM] | IC50 (BRAF^V600E) [µM] | SMILES
0.0494 | 4.41 | 4.96 | 0.0187 | 0.00392 | Cc1nc(-c2cccc(NS(=O)(=O)c3ccccc3)c2F)c(-c2ccnc(NCCCCCCC(=O)NO)n2)s1 [21f, 7-{[4-(4-(2-Fluoro-3-(Phenylsulfonamido)Phenyl)-2-Methylthiazol-5-yl)Pyrimidin-2-yl]Amino}-N-Hydroxyheptanamide]
0.0423 | 7.53 | 6.39 | 0.0146 | 0.0035 | Cc1nc(-c2cccc(NS(=O)(=O)c3c(F)cccc3F)c2F)c(-c2ccnc(NCCCCCCC(=O)NO)n2)s1 [14e, 7-{[4-(4-(3-(2,6-Difluorophenylsulfonamido)-2-Fluorophenyl)-2-Methylthiazol-5-yl)Pyrimidin-2-yl]Amino}-N-Hydroxyheptanamide]
0.432 | 5.44 | 0.78 | 0.0721 | 0.00171 | CCCS(=O)(=O)Nc1cccc(-c2nc(C(C)(C)C)sc2-c2ccnc(NCCCCCCC(=O)NO)n2)c1F [21b, 7-{[4-(2-(Tert-Butyl)-4-(2-Fluoro-3-(Propylsulfonamido)Phenyl)Thiazol-5-yl)Pyrimidin-2-yl]Amino}-N-Hydroxyheptanamide]
0.765 | 3.66 | 0.48 | 0.322 | 0.00382 | CC(C)(C)c1nc(-c2cccc(NS(=O)(=O)c3c(F)cccc3F)c2F)c(-c2ccnc(NCCCCCCCCC(=O)NO)n2)s1 [14d, 9-{[4-(2-(Tert-Butyl)-4-(3-(2,6-Difluorophenylsulfonamido)-2-Fluorophenyl)Thiazol-5-yl)Pyrimidin-2-yl]Amino}-N-Hydroxynonanamide]
0.0522 | 9.15 | > 10 | 0.0188 | 0.107 | CCS(=O)(=O)Nc1cccc(-c2nc(C)sc2-c2ccnc(NCCCCCCC(=O)NO)n2)c1F [21e, 7-{[4-(4-(3-(Ethylsulfonamido)-2-Fluorophenyl)-2-Methylthiazol-5-yl)Pyrimidin-2-yl]Amino}-N-Hydroxyheptanamide]
0.071 | > 10 | > 10 | 0.0218 | 0.258 | Cc1nc(-c2cccc(NS(C)(=O)=O)c2F)c(-c2ccnc(NCCCCCCC(=O)NO)n2)s1 [21d, 7-{[4-(4-(2-Fluoro-3-(Methylsulfonamido)Phenyl)-2-Methylthiazol-5-yl)Pyrimidin-2-yl]Amino}-N-Hydroxyheptanamide]
0.0498 | 4.71 | 2.21 | 0.0271 | 0.00131 | O=C(CCCCCCNc1nccc(-c2sc(C3CC3)nc2-c2cccc(NS(=O)(=O)c3c(F)cccc3F)c2F)n1)NO [14h, 7-{[4-(2-Cyclopropyl-4-(3-(2,6-Difluorophenylsulfonamido)-2-Fluorophenyl)Thiazol-5-yl)Pyrimidin-2-yl]Amino}-N-Hydroxyheptanamide]
0.0613 | 4.27 | 1.27 | 0.0265 | 0.00166 | CCc1nc(-c2cccc(NS(=O)(=O)c3c(F)cccc3F)c2F)c(-c2ccnc(NCCCCCCC(=O)NO)n2)s1 [14f, 7-{[4-(4-(3-(2,6-Difluorophenylsulfonamido)-2-Fluorophenyl)-2-Ethylthiazol-5-yl)Pyrimidin-2-yl]Amino}-N-Hydroxyheptanamide]
0.312 | 4.47 | 0.88 | 0.128 | 0.00227 | CC(C)(C)c1nc(-c2cccc(NS(=O)(=O)c3c(F)cccc3F)c2F)c(-c2ccnc(NCCCCCCCC(=O)NO)n2)s1 [14c, 8-{[4-(2-(Tert-Butyl)-4-(3-(2,6-Difluorophenylsulfonamido)-2-Fluorophenyl)Thiazol-5-yl)Pyrimidin-2-yl]Amino}-N-Hydroxyoctanamide]
0.113 | 8.52 | 5.02 | 0.0222 | 0.00103 | CC(C)(C)c1nc(-c2cccc(NS(C)(=O)=O)c2F)c(-c2ccnc(NCCCCCCC(=O)NO)n2)s1 [21a, 7-{[4-(2-(Tert-Butyl)-4-(2-Fluoro-3-(Methylsulfonamido)Phenyl)Thiazol-5-yl)Pyrimidin-2-yl]Amino}-N-Hydroxyheptanamide]
0.13 | 2.68 | 0.99 | 0.03 | 0.00151 | CC(C)c1nc(-c2cccc(NS(=O)(=O)c3c(F)cccc3F)c2F)c(-c2ccnc(NCCCCCCC(=O)NO)n2)s1 [14g, 7-{[4-(4-(3-(2,6-Difluorophenylsulfonamido)-2-Fluorophenyl)-2-Isopropylthiazol-5-yl)Pyrimidin-2-yl]Amino}-N-Hydroxyheptanamide]
0.679 | 3 | 1 | 1.21 | 0.00325 | CC(C)(C)c1nc(-c2cccc(NS(=O)(=O)c3c(F)cccc3F)c2F)c(-c2ccnc(NCCCCCC(=O)NO)n2)s1 [14a]
0.105 | 3.08 | 0.97 | 0.0646 | 0.00107 | CCCc1nc(-c2cccc(NS(=O)(=O)c3c(F)cccc3F)c2F)c(-c2ccnc(NCCCCCCC(=O)NO)n2)s1 [14i, 7-{[4-(4-(3-(2,6-Difluorophenylsulfonamido)-2-Fluorophenyl)-2-Propylthiazol-5-yl)Pyrimidin-2-yl]Amino}-N-Hydroxyheptanamide]
